In article PMC7909954 (eLife, 2021):
“And” between values parts separate entries of the source, which are not always exact repeats. Identical values can stand only once.

Columns and labels:
[1] = target: T1, SERT (Homo sapiens, UniProt P31645); assay: Radioligand binding counter-screen (NIMH PDSP)
T1 construct: NIMH Psychoactive Drug Screening Program

[2] = target: all screened targets except SERT and α2C-adrenoreceptors; assay: Radioligand binding counter-screen (NIMH PDSP), remaining targets; conditions: non-opioid targets
[3] = system: MOR KO, KOR KO and DOR KO mice; assay: 55°C warm-water tail-withdrawal assay in opioid receptor knock out mice; assay type: in vivo, mouse
[4] = target: T2, mDOR (Mus musculus, UniProt P32300); conditions: binding assays
[5] = target: T3, KOR (Homo sapiens, UniProt P41145)
[6] = target: Y312W-hKOR (Homo sapiens, UniProt P41145, Y312W); assay: cell-based
[7] = target: T3, KOR; assay: cell-based
[8] = target: T4, DOR (Homo sapiens, UniProt P41143); assay: cell-based
[9] = target: T2, mDOR; assay: cell-based
[10] = target: T2, mDOR; assay: biochemical; conditions: read-out: Emax mDOR [35S]GTPγS
[11] = target: MOR (Homo sapiens, UniProt P35372); assay: Radioligand binding counter-screen (NIMH PDSP); set-up: NIMH Psychoactive Drug Screening Program
[12] = target: T3, KOR; assay: Radioligand binding counter-screen (NIMH PDSP); set-up: NIMH Psychoactive Drug Screening Program
[13] = target: T4, DOR; assay: Radioligand binding counter-screen (NIMH PDSP); set-up: National Institutes of Mental Health Psychoactive Drug Screen Program (service)
[14] = DOR KO mice, 100 nmol i.c.v. in 50% DMSO, group mean n=8
[15] = DOR KO mice, 100 nmol i.c.v. in 50% DMSO, individual mouse
[16] = KOR KO mice, 100 nmol i.c.v. in 50% DMSO, group mean n=8
[17] = KOR KO mice, 100 nmol i.c.v. in 50% DMSO, individual mouse
[18] = KOR KO mice, 100 nmol i.c.v. in 50% DMSO, group mean n=6
[19] = KOR KO mice, 100 nmol i.c.v., per mouse
[20] = MP1207 30 nmol icv, MP1208 35 nmol icv
[21] = transduction coefficient log(T/KA)

T4 sequence (P41143 whole entry): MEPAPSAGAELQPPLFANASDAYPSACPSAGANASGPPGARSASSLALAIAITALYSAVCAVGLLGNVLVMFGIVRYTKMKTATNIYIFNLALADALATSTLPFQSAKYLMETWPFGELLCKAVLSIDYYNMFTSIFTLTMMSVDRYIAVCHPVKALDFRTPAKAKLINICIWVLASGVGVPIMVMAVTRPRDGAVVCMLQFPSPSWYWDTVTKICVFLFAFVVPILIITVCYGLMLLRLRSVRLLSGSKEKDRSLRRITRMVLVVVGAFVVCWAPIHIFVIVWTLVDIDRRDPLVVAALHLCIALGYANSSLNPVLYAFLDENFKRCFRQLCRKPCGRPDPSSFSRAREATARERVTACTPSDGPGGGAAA
T2 sequence (P32300 whole entry): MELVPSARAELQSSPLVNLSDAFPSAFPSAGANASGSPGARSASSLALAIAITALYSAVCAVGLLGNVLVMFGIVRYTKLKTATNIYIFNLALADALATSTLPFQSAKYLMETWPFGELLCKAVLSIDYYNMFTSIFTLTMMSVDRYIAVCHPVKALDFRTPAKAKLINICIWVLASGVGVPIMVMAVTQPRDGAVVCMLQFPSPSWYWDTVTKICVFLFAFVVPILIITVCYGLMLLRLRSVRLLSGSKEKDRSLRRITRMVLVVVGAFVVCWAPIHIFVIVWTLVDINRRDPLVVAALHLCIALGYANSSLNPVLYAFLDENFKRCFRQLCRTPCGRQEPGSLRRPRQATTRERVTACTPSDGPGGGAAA
T3 sequence (P41145 whole entry): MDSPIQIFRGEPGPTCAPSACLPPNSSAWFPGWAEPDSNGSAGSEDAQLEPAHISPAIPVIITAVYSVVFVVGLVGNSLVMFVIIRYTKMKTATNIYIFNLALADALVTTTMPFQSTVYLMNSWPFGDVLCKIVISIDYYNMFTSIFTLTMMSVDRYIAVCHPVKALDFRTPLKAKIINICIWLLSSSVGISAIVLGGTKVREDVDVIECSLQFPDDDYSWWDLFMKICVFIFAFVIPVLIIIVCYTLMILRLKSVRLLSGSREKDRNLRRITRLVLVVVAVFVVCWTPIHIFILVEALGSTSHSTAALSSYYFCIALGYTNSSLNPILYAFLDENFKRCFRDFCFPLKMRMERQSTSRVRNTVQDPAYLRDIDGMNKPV
Sequence of Y312W-hKOR (P41145 whole entry Y312W): as the sequence (P41145 whole entry) above, with Y312W counted along it
T1 sequence (P31645 whole entry, species assumed): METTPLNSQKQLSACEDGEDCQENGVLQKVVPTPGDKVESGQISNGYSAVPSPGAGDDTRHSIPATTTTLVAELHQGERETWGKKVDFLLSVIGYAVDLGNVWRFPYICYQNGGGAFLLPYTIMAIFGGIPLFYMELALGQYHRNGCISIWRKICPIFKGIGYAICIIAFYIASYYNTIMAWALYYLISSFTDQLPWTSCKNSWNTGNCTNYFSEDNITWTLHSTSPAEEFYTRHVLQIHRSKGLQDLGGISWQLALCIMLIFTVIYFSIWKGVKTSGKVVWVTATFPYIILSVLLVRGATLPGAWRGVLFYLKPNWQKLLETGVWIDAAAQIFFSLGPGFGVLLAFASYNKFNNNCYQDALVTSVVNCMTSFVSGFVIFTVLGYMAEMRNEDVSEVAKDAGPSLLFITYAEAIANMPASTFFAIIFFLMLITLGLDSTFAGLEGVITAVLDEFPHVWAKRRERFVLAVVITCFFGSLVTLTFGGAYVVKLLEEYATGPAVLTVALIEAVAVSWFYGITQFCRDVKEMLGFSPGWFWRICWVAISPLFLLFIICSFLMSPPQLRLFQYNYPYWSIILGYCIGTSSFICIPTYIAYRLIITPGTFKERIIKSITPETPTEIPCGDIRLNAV
Sequence of MOR (P35372 whole entry): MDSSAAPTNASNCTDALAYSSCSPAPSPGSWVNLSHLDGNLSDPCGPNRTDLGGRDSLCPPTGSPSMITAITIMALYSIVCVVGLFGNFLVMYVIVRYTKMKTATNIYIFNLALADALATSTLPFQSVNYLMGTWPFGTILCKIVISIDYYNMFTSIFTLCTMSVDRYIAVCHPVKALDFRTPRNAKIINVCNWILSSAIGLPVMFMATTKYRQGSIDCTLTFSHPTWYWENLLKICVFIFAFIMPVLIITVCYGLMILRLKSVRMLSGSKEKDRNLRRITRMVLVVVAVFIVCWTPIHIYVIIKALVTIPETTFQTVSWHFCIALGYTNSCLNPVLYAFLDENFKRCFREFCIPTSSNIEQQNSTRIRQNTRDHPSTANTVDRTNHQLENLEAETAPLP

What does the source list for `NCc1cccc(C(=O)N[C@@H]2CCC3C4Cc5ccc(O)c6c5[C@@]3(CCN4CC3CC3)C2O6)c1` (stereo partly drawn) [MP1207, 3-(Aminomethyl)-N-((7R,12bS)−3-(cyclopropylmethyl)−9-hydroxy-2,3,4,4a,5,6,7,7a-octahydro-1H-4,12-methanobenzofuro[3,2-e]isoquinolin-7-yl)benzamide]?
Ki [1]: 356 nM; selectivity for MOR and KOR over the nearest non-opioid target ([1]; from counter-screen Ki): 900 fold; Ki [2]: > 10000 nM; %A-10 min [3, 14]: 77.68%; tail-withdrawal latency, 10 min [3, 14]: 12.075 s; %A-10 min [3, 15]: 100% and 14.62% and 6.82%; tail-withdrawal latency, 10 min [3, 15]: 15 s and 3.9 s and 2.7 s; %A-20 min [3, 14]: 75.4713%; tail-withdrawal latency, 20 min [3, 14]: 11.775 s; %A-20 min [3, 15]: 100% and 91.85% and 84.33% and 20.77% and 6.82%; tail-withdrawal latency, 20 min [3, 15]: 15 s and 13.9 s and 12.9 s and 4.7 s and 2.7 s; %A-30 min [3, 14]: 78.53%; tail-withdrawal latency, 30 min [3, 14]: 12.1875 s; %A-30 min [3, 15]: 100% and 13.85% and 14.39%; tail-withdrawal latency, 30 min [3, 15]: 15 s and 3.8 s and 3.7 s; %A-40 min [3, 14]: 46.6687%; tail-withdrawal latency, 40 min [3, 14]: 7.925 s; %A-40 min [3, 15]: 100% and 51.85% and 38.64% and 23.13% and 45.52% and 89.78% and 12.31% and 12.12%; tail-withdrawal latency, 40 min [3, 15]: 15 s and 8.5 s and 6.9 s and 4.7 s and 7.7 s and 13.6 s and 3.6 s and 3.4 s; %A-50 min [3, 14]: 38.3875%; tail-withdrawal latency, 50 min [3, 14]: 6.8 s; %A-50 min [3, 15]: 62.12% and 17.04% and 35.61% and 100% and 29.1% and 37.96% and 17.69% and 7.58%; tail-withdrawal latency, 50 min [3, 15]: 10 s and 3.8 s and 6.5 s and 15 s and 5.5 s and 4.3 s and 2.8 s; %A-60 min [3, 14]: 43.0038%; tail-withdrawal latency, 60 min [3, 14]: 7.425 s; %A-60 min [3, 15]: 62.12% and 55.56% and 25% and 100% and 36.57% and 36.5% and 16.92% and 11.36%; tail-withdrawal latency, 60 min [3, 15]: 10 s and 9 s and 5.1 s and 15 s and 6.5 s and 6.3 s and 4.2 s and 3.3 s; %A-70 min [3, 14]: 13.2125%; tail-withdrawal latency, 70 min [3, 14]: 3.4375 s; %A-70 min [3, 15]: 10.61% and 9.63% and 20.45% and 13.43% and 5.97% and 19.71% and 9.23% and 16.67%; tail-withdrawal latency, 70 min [3, 15]: 3.2 s and 2.8 s and 4.5 s and 3.4 s and 2.4 s and 4 s; %A-80 min [3, 14]: 8.564%; tail-withdrawal latency, 80 min [3, 14]: 2.8125 s; %A-80 min [3, 15]: 5.3% and 7.41% and 6.82% and 9.7% and 4.48% and 5.84% and 11.54% and 17.42%; tail-withdrawal latency, 80 min [3, 15]: 2.5 s and 2.7 s and 2.9 s and 2.2 s and 2.1 s and 3.5 s and 4.1 s; %A-90 min [3, 14]: 3.185%; tail-withdrawal latency, 90 min [3, 14]: 1.95 s; %A-90 min [3, 15]: 3.03% and 3.7% and 0% and 5.11% and 13.64%; tail-withdrawal latency, 90 min [3, 15]: 2.2 s and 2 s and 1.5 s and 1.4 s and 1.1 s and 1.8 s and 3.6 s; %A-100 min [3, 14]: 2.474%; tail-withdrawal latency, 100 min [3, 14]: 1.925 s; %A-100 min [3, 15]: 0% and 2.22% and 0.75% and 2.24% and 0.73% and 13.85%; tail-withdrawal latency, 100 min [3, 15]: 1.6 s and 1.8 s and 1.4 s and 1.7 s and 1.9 s and 3.8 s; %A-110 min [3, 14]: 0.555%; tail-withdrawal latency, 110 min [3, 14]: 1.6125 s; %A-110 min [3, 15]: 0% and 2.22% and 1.49% and 0.73%; tail-withdrawal latency, 110 min [3, 15]: 1.3 s and 1.8 s and 1.6 s and 1.4 s and 1.9 s and 1.7 s; %A-10 min [3, 16]: 63.4062%; tail-withdrawal latency, 10 min [3, 16]: 10.1 s; %A-10 min [3, 17]: 100% and 52.52% and 98.5% and 0% and 0.76%; tail-withdrawal latency, 10 min [3, 17]: 15 s and 8.4 s and 14.8 s and 1.8 s and 1.9 s; %A-20 min [3, 16]: 39.6638%; tail-withdrawal latency, 20 min [3, 16]: 6.8125 s; %A-20 min [3, 17]: 34.59% and 36.76% and 15.83% and 23.31% and 0% and 6.82%; tail-withdrawal latency, 20 min [3, 17]: 6.3 s and 6.4 s and 3.3 s and 4.8 s and 1 s and 2.7 s; %A-30 min [3, 16]: 26.1938%; tail-withdrawal latency, 30 min [3, 16]: 5.125 s; %A-30 min [3, 17]: 21.8% and 44.85% and 16.55% and 0% and 4.55%; tail-withdrawal latency, 30 min [3, 17]: 4.6 s and 7.5 s and 3.4 s and 2.2 s and 2.4 s; %A-40 min [3, 16]: 17.335%; tail-withdrawal latency, 40 min [3, 16]: 3.9125 s; %A-40 min [3, 17]: 14.29% and 16.91% and 15.83% and 12.78% and 7.81% and 6.82%; tail-withdrawal latency, 40 min [3, 17]: 3.6 s and 3.7 s and 3.3 s and 3.4 s and 3.2 s and 2.7 s; %A-50 min [3, 16]: 20.3588%; tail-withdrawal latency, 50 min [3, 16]: 4.2125 s; %A-50 min [3, 17]: 11.28% and 27.21% and 10.07% and 32.33% and 0% and 6.06%; tail-withdrawal latency, 50 min [3, 17]: 3.2 s and 5.1 s and 2.5 s and 6 s and 1.3 s and 2.6 s; %A-60 min [3, 16]: 11.2062%; tail-withdrawal latency, 60 min [3, 16]: 3.0875 s; %A-60 min [3, 17]: 3.76% and 12.5% and 6.47% and 0.75% and 6.25% and 1.52%; tail-withdrawal latency, 60 min [3, 17]: 2.2 s and 3.1 s and 2 s and 1.8 s and 3 s; %A-70 min [3, 16]: 9.87%; tail-withdrawal latency, 70 min [3, 16]: 2.85 s; %A-70 min [3, 17]: 5.26% and 19.85% and 3.6% and 7.52% and 0% and 10.61%; tail-withdrawal latency, 70 min [3, 17]: 2.4 s and 4.1 s and 1.6 s and 2.7 s and 1.8 s and 3.2 s; %A-80 min [3, 16]: 8.631%; tail-withdrawal latency, 80 min [3, 16]: 2.725 s; %A-80 min [3, 17]: 1.5% and 30.88% and 2.16% and 12.78% and 3.91% and 8.33%; tail-withdrawal latency, 80 min [3, 17]: 1.9 s and 5.6 s and 1.4 s and 3.4 s and 2.7 s and 2.9 s; %A-90 min [3, 16]: 1.379%; tail-withdrawal latency, 90 min [3, 16]: 1.7125 s; %A-90 min [3, 17]: 0% and 0.74% and 0.72% and 0.78% and 0.76%; tail-withdrawal latency, 90 min [3, 17]: 1.5 s and 1.2 s and 1.6 s and 2.3 s and 1.9 s; %A-100 min [3, 18]: 1.217%; tail-withdrawal latency, 100 min [3, 18]: 1.55 s; %A-100 min [3, 17]: 0.75% and 1.47% and 2.16% and 0%; tail-withdrawal latency, 100 min [3, 17]: 1.8 s and 1.6 s and 1.4 s and 1.5 s; %A-110 min [3, 18]: 0.365%; tail-withdrawal latency, 110 min [3, 18]: 1.467 s; %A-110 min [3, 17]: 0% and 0.74% and 0.72%; tail-withdrawal latency, 110 min [3, 17]: 1.7 s and 1.5 s and 1.2 s; %A-10 min [3, 19]: 100% and 55.47%; tail-withdrawal latency, 10 min [3, 19]: 15 s and 8.9 s; %A-20 min [3, 19]: 100%; tail-withdrawal latency, 20 min [3, 19]: 15 s; %A-30 min [3, 19]: 38.69% and 61.31%; tail-withdrawal latency, 30 min [3, 19]: 6.6 s and 9.7 s; %A-40 min [3, 19]: 31.39% and 32.85%; tail-withdrawal latency, 40 min [3, 19]: 5.6 s and 5.8 s; %A-50 min [3, 19]: 45.26% and 30.66%; tail-withdrawal latency, 50 min [3, 19]: 7.5 s and 5.5 s; %A-60 min [3, 19]: 13.14% and 45.26%; tail-withdrawal latency, 60 min [3, 19]: 3.1 s and 7.5 s; %A-70 min [3, 19]: 19.71% and 12.41%; tail-withdrawal latency, 70 min [3, 19]: 4 s and 3 s; %A-80 min [3, 19]: 8.03% and 1.46%; tail-withdrawal latency, 80 min [3, 19]: 2.4 s and 1.5 s; %A-90 min [3, 19]: 2.92% and 5.11%; tail-withdrawal latency, 90 min [3, 19]: 1.7 s and 2 s; %A-100 min [3, 19]: 0% and 2.92%; tail-withdrawal latency, 100 min [3, 19]: 1.3 s and 1.7 s; %A-110 min [3, 19]: 0% and 0.73%; tail-withdrawal latency, 110 min [3, 19]: 1.3 s and 1.4 s; antinociception in DOR KO mice vs WT [3, 20]: remained intact; antinociception in KOR KO mice vs WT [3, 20]: attenuated; antinociception in MOR KO mice vs WT [3, 20]: attenuated; selectivity for MOR and KOR over DOR [4]: more than 40 fold; ΔΔlog RA (cAMP-Tango) hKOR [5]: 0.903±0.026; Bias factor (cAMP-Tango) hKOR ([5]; >1 G protein bias, <1 arrestin bias, vs U50,488h): 8; Log RA cAMP hKOR [5, 21]: 9.902±0.004; LogRA Tango hKOR [5, 21]: 7.97±0.024; ΔlogRA Tango hKOR ([5]; vs U50,488h): -0.176±0.025; ΔlogRA cAMP hKOR ([5]; vs U50,488h): 0.73±0.006; EC50 [6]: 0.16 nM; Emax ([6]; read-out: Emax% cAMP inhibition Y312W-hKOR): 95 ± 1.8%; EC50 ([7]; EC50 arrestin recruitment (Tango) hKOR): 3.97 nM; Emax ([7]; HTLA, read-out: Emax% arrestin recruitment (Tango) hKOR): 37 ± 2%; EC50 ([8]; EC50 arrestin recruitment hDOR, Tango): 64.1 nM; Emax ([8]; HTLA, read-out: Emax% arrestin recruitment hDOR): 34 ± 3.7%; EC50 ([9]; EC50 G protein activation (BRET) mDOR): 116 nM; Emax ([9]; HEK-293T, read-out: Emax% G protein activation (BRET) mDOR): 52 ± 2.3%; Emax [10]: 10 to 15%; Ki [11]: 0.39 nM; Ki [12]: 0.39 nM; Ki [13]: 60.1 nM
